Patent US4786755A, “Diphenic acid monoamides” (Warner-Lambert Company, priority 1986, dated 1988)

Tested on: Sensitized Guinea Pigs
Assay: Slow-Onset (nonhistamine) Bronchospasm Induced by Antigen Challenge in Sensitized Guinea Pigs (SRSPIG)
Assay type: in vivo, guinea pig
Design: concentration or dose not given beside the values
Conditions: mepyramine pretreated, five minutes after ovalbumin
Source text: Induction and Quantitation of the Slow-Onset (nonhistamine) Bronchospasm Induced by Antigen Challenge in Sensitized Guinea Pigs (SRSPIG)
This guinea pig in vivo model was developed to quantitate the pulmonary effects of nonhistamine mediated, antigen-induced anaphylaxis. Mepyramine pretreatment is used to block the effects of histamine to permit quantitation of the effects of other biologically active mediators. The method is designed to detect drugs which inhibit the release or synthesis "other" mediators, such as leukotriene, thromboxane, etc., or drugs blocking the end organ effects of these mediators. When a sensitized guinea pig is exposed to the sensitizing antigen, it develops a systemic anaphylactic response characterized by increased pulmonary resistance and decreased dynamic compliance (CDYN). Pulmonary resistance is a measure of the changes in transpulmonary pressure and respiratory flow. Dynamic compliance is an expression of the relative changes in tidal volume and transpulmonary pressure. In this model, dynamic compliance is used to measure changes in the elastic propertie of the small airways and pulmonary resistance to measure constrictive responses of the large airways. In human asthma, small airway changes appear to be more closely related to the pathogenesis of disease. Thus, dynamic compliance effects will be weighted more heavily in our analysis of the changes produced by drugs. In the presence of mepyramine, the effects of histamine are blocked. The observed pulmonary effects are thought to be largely leukotriene mediated. In the guinea pig, thromboxanes may also be involved (1,2) and might augment the leukotriene response. Since leukotrienes are not preformed mediators and their effects are slow in onset, in the absence of the histamine effect, a bronchospasm is not seen until approximately 1.5-3 minutes after antigen administration. However, the leukotriene-mediated response is long lasting.
Animals: Male Hartley strain guinea pigs, weighing between 200 and 250 g on delivery, were used. The animals were supplied by the Charles River Co., Wilmington, MA.
Sensitization Procedure: Ovalbumin (2× recrystallized, Miles Laboratories Ltd.) is dissolved (0.2 mg/ml) in saline. The guinea pigs are given a single intraperitoneal injection of 0.5 ml of the stock solution to sensitize them. The animals are maintained normally for four to six weeks before use.
Anesthesia: Surgical anesthesia is induced by giving an IP injection of valium, 5 mg/kg, followed immediately by Innovar-Vet (Pitman-More), 0.7 ml/kg (IM). Each ml of Innovar-Vet contains 0.4 mg fentanyl, 20 mg droperidol, 1.8 mg methylparaben, and 0.2 mg propylparaben.
Surgical Preparation: The anesthetized guinea pig is shaved in the ventral neck region and on the right side of the thorax and affixed supine to a dissecting board. A midline incision is made in the neck and the trachea is exposed. The jugular vein is cannulated with PE 50 tubing to administer drugs and antigen. The trachea is cannulated with PE 240 tubing. If the protocol required measuring blood pressure, the carotid artery is isolated and cannulated with PE 50 tubing. A spear-like cannula is then inserted into the thorax to measure transpulmonary pressure. Needle electrodes are inserted into the musculature of each leg to record electrocardiograms.
Pulmonary Mechanics Methods: The tracheal cannula is connected inline to a Fleisch 000 pneumotachograph (factor calibration 10 cm H2 O=22.2 ml/sec) and a Validyne differential pressure transducer, to measure respiratory flow. Transpulmonary pressure is measured by connecting one side of a Validyne pressure transducer to the side arm of the tracheal cannula and the other side to the cannula inserted into the thorax at approximately the 5th intercostal space.
The pressure and flow signals are fed into Validyne preamplifiers and then transmitted to a pulmonary mechanics computer (Buxco). […]

With `O=C(O)c1ccccc1-c1ccccc1C(=O)Nc1ccc(CCc2ccc(Cl)c(Cl)c2)cc1` [Example 3, [1,1'-Biphenyl]-2-carboxylic acid, 2'-[[[4-[2-(3,4-dichlorophenyl)ethyl]phenyl]amino]carbonyl]-] the “SRS-PIG, percent inhibition (CDYN)” value was 16%.

For `O=C(O)c1ccccc1-c1ccccc1C(=O)Nc1cccc(CCc2ccc(Cl)c(Cl)c2)c1` [Example 4, [1,1'-Biphenyl]-2-carboxylic acid, 2'-[[[3-[2-(3,4-dichlorophenyl)ethyl]phenyl]amino]carbonyl]-], the “SRS-PIG, percent inhibition (CDYN)” value was 3%.

For `O=C(O)c1ccccc1-c1ccccc1C(=O)Nc1ccc(CCCc2ccc(Cl)c(Cl)c2)cc1` [Example 1, [1,1'-Biphenyl]-2-carboxylic acid, 2'-[[[4-[3-(3,4-dichlorophenyl)propyl]phenyl]amino]carbonyl]-], the “SRS-PIG, percent inhibition (CDYN)” value was 51%.

For `O=C(O)c1ccccc1-c1ccccc1C(=O)Nc1ccc(CCCCCc2ccccc2)cc1` [Example 21, [1,1'-Biphenyl]-2-carboxylic acid, 2'-[[[4-(5-phenylpentyl)phenyl]amino]carbonyl]-], the “SRS-PIG, percent inhibition (CDYN)” value was 21%.

`O=C(O)c1ccccc1-c1ccccc1C(=O)Nc1ccc(CCCc2ccccc2)cc1` [Example 16, [1,1'-Biphenyl]-2-carboxylic acid, 2'-[[[4-(3-phenylpropyl]phenyl]amino]carbonyl]-] was tested, and the “SRS-PIG, percent inhibition (CDYN)” value was 33%.

`O=C(O)c1ccccc1-c1ccccc1C(=O)Nc1ccc(OCCCc2ccccc2)cc1` [Example 2] was tested, and the “SRS-PIG, percent inhibition (CDYN)” value was 64%.
